Holding throughout (format): cell-based
Experiment [1] concerns HeLa cells. The experiment can be described thus: Fluorescence microscopy uptake study in HeLa cells. The settings on record: 10^−5 M, water/Cremophor. The procedure:
Cells were seeded at a density of 30,000 cells/well in chamber slides and allowed to adhere for 24 hr. A compound of the present invention (10^−5 M) was then added to each chamber and incubated at 37° C. in the dark over time, for example, 15 min, 30 min, 1 hr, 3 hr and 6 hr. The medium was removed after the specified time and the cells were washed 4 times with medium free of that compound of the invention. The cells were then fixed with 3.7% (v/v) formaldehyde for 15 min at 37° C. The fixative solution was removed and the cells were washed twice with sterile PBS. DAPI nuclear stain (1/1000) was then incubated with the cells for 10 is min at 37° C., following which the cells were washed twice with PBS. Cells were then mounted in Vectashield (Trade Mark) mounting medium.
LabWorks (Bioimaging Systems) was used to calculate the average fluorescence intensity per cell for each of the different time points used in the uptake and efflux studies for the compounds of the present invention. […] The DAPI filter was used to accurately count the number of cells in each field of view and the rhodamine filter was used to quantify the fluorescence of the compounds of the present invention. […]
Using the assay method set out above under the heading “Fluorescence Microscopy”, the uptake of 2a was examined for HeLa and MRC5 […] cell lines and the data are illustrated in FIGS. 6a and 6b, respectively. […]

In experiment [2] the test system is MRC5 cells. Kind of experiment: Light/dark cytotoxicity study (MTT) in MRC5 cells. Here is the method:
(§1) MRC5 and HeLa cell cultures were maintained in MEM (minimum essential medium) containing 10% (v/v) foetal calf serum (FCS), 1% (v/v) non-essential amino acids, 2 μg/ml Fungizone (Trade Mark) (amphotericin B), 50 μg/ml penicillin, 50 μg/ml streptomycin, 20 mM HEPES and 1% (v/v) L-Glutamine. Cells were passaged at least twice before use in the cytotoxicity assays.
(§2) Stock haematoporphyrin water-dimethyl sulphoxide (DMSO) (100:1 (v/v)) solutions were diluted with MEM containing 10% FCS. Cells were seeded at 5,000 cells/well in 96-well plates and incubated for 24 hr at 37° C. The 24 hour incubation period was chosen having regard to the slower uptake of haernatoporphyrin in the absence of Cremophor, when compared to the compounds of the present invention in the presence of Cremophor (see below). Cells were then incubated with haematoporphyrin in the dark for 24 hr at 37° C. The haematoporphyrin laden culture medium was then removed by filtration, the cells were washed with PBS and fresh culture medium was added to each well. A 500 W light source, passed through a red glass and water filter barrier, (to ensure cells are irradiated with light of wavelength greater than 570 nm) was used to irradiate the plates for both 15 and 30 min. Following irradiation, the cells were incubated for a further 48 hr at 37° C. before being assessed for cell survival.
(§3) Stock 2a or 2b water-Cremophor EL (Trade Mark—CAS 61791-12-6) (1:250 (v/v)) solutions were diluted with MEM containing 10% FCS. Cells were seeded at 5,000 cells/well in 96-well plates and incubated for 24 hr at 37° C. Cells were then incubated with 2a or 2b in the dark for 3 hr at 37° C. The 3 hour incubation period was chosen to reflect the faster cellular uptake of 2a or 2b in the presence of Cremophor, when compared to the cellular uptake of haematoporphyrins in the absence of Cremophor. The 2a or 2b laden culture medium was then removed by filtration, the cells were washed with PBS and fresh culture medium was added to each well. The plates were then irradiated using a 500 W light source passed through a red glass and water filter barrier, (thereby ensuring cells are irradiated with light of wavelength greater than 570 nm) for both 15 and 30 min.
(§4) Following irradiation, the cells were incubated for a further 48 hr at 37° C. before being assessed for cell survival. The dark toxicity of compounds of the present invention was also assessed in each experiment.
(§5) Cell viability was estimated using the standard MTT (microtiter tetrazolium) assay. This assay measures mitochondrial dehydrogenase activity and is based on the reduction of a soluble yellow tetrazolium salt to a blue, insoluble MTT formazan product by this enzyme. The subsequent colour change produced by viable cells was quantified using a plate reader (VICTOR^2 1420 multilabel HTS counter, Wallac). As mentioned above under the headings “Cytotoxicity”, the cells are incubated at 37° C. for 48 hours, following which the MTT solution was added to the cells at a final concentration of 0.5 mg/ml and incubated for 3 hr at 37° C. The MTT solution was then removed by filtration and 100 μl DMSO was added to each well in order to lyse the cells and release the formazan dye. The plates were read 1 hr later at 540 nm.
(§6) Prism (Trade Mark) […] was used to graph the data obtained from the MTT assays and the uptake/efflux experiments. This programme allows non-linear regression analysis and the generation of sigmoidal dose response curves. Prism (Trade Mark) also automatically calculates EC50 values.
(§7) Light toxicity assays were also carried out as described above under “Assay methods” in HeLa and MRC5 cells for haematoporphyrin (FIGS. 9 and 10), 2a (FIGS. 11 and 12) and 2b (FIGS. 13 and 14).

Experiment [3] concerns HeLa cells. Kind of experiment: Light/dark cytotoxicity study (MTT) in HeLa cells. Here is the method: as §1, §2, §3, §4, §5, §6, §7
Experiment [4] relates to HeLa cancer cells. The experiment can be described thus: Preliminary light toxicity assay. To be noted: 24 hours exposure, 15 minutes irradiation >570 nm. The procedure: HeLa cancer calls were exposed to 2a in varying concentrations for 24 hours. 2a laden medium was removed and replaced with fresh medium. Cells were irradiated at constant temperature of 37° C. for 15 minutes with light from a 100 W or 500 W halogen lamp passed through a red glass and water filter barrier, thereby ensuring cells are irradiated with light of more than 570 nm. Irradiated cells were incubated for a further 24 hrs at 37° C. MT cell viability assay was performed.
The dark toxicity effect may be caused by the micellar delivery vehicle itself.

A word on the EC50: it is the midpoint of the concentration-response curve.

Like-named read-outs stand apart in the source and are kept apart here.

On to `F[B-]1(F)n2c(-c3ccccc3)cc(-c3ccccc3)c2N=C2C(c3ccccc3)=CC(c3ccccc3)=[N+]21` [Compound 2a], for which the “time of maximum uptake” value in experiment [1] was found to be 300 min. Moreover, the EC50 in experiment [2] (MRC5, 0 J/cm^2 light (no light), read-out: EC50 (dark toxicity)) amounted to 3500 nM; in experiment [2] (MRC5, 8 J/cm^2 light (15 mins from a 500 W light source), read-out: EC50), 2000 nM; in experiment [2] (MRC5, 16 J/cm^2 light (30 mins from a 500 W light source), read-out: EC50), 460 nM; in experiment [3] (0 J/cm^2 light (no light), read-out: EC50 (dark toxicity)), 23000 nM; in experiment [3] (8 J/cm^2 light (15 mins from a 500 W light source), read-out: EC50), 4500 nM; in experiment [3] (16 J/cm^2 light (30 mins from a 500 W light source), read-out: EC50) it was 1300 nM. In addition, in experiment [4] (500 W light source), a half-maximal effect (EC50) was put at 1000 nM. Moreover, in experiment [4] (100 W light source, compared with 500 W), the dose response entry is “poorer response”.

Values taken from US7220732B2, “Compounds useful as photodynamic therapeutic agents” (priority 2002, dated 2007).
